{"source": "paper PMC5471928", "about": "(2017)", "key": {"[1]": {"test_system": "c-kit2 (DNA, G4) CCCGGGCGGGCGCGAGGGAGGGGAGG", "assay": "fluorescence light-up", "conditions": "K+ 100 mM; 10 mM Tris-HCl pH 7.4; 5 µM each; quantum yield 0.13 against 0.08 free"}, "[2]": {"test_system": "hTel22 (DNA, G4) AGGGTTAGGGTTAGGGTTAGGG", "assay": "fluorescence titration", "conditions": "K+ 100 mM; 10 mM Tris-HCl pH 7.4; 5 µM c-exNDI; apparent"}, "[3]": {"test_system": "hTel22 (DNA, G4) AGGGTTAGGGTTAGGGTTAGGG", "assay": "UV-vis absorption titration", "conditions": "10 mM Tris-HCl pH 7.4, 5 µM c-exNDI, apparent"}, "[4]": {"test_system": "HRAS (DNA, G4) TCGGGTTGCGGGCGCAGGGCACGGGCG", "assay": "UV-vis absorption titration", "conditions": "K+ 100 mM; 10 mM Tris-HCl pH 7.4; 5 µM c-exNDI; apparent; overall constant of 2:1 model"}, "[5]": {"test_system": "TBA (DNA, G4) GGTTGGTGTGGTTGG", "assay": "UV-vis absorption titration", "conditions": "K+ 100 mM; 10 mM Tris-HCl pH 7.4; 5 µM c-exNDI; apparent"}, "[6]": {"test_system": "c-kit1 (DNA, G4) AGGGAGGGCGCTGGGAGGAGGG", "assay": "UV-vis absorption titration", "conditions": "K+ 100 mM; 10 mM Tris-HCl pH 7.4; 5 µM c-exNDI; apparent"}, "[7]": {"test_system": "c-myc (DNA, G4) TGAGGGTGGGTAGGGTGGGTAA", "assay": "UV-vis absorption titration", "conditions": "K+ 100 mM; 10 mM Tris-HCl pH 7.4; 5 µM c-exNDI; apparent; main text prints error ± 0.3"}, "[8]": {"test_system": "ssDNA (DNA, single strand) GGATGTGAGTGTGAGTGTGAGG", "assay": "UV-vis absorption titration", "conditions": "K+ 100 mM; 10 mM Tris-HCl pH 7.4; 5 µM c-exNDI; apparent"}, "[9]": {"test_system": "dsDNA (DNA, duplex) CAATCGGATCGAATTCGATCCGATTG", "assay": "UV-vis absorption titration", "conditions": "K+ 100 mM; 10 mM Tris-HCl pH 7.4; 5 µM c-exNDI; apparent"}, "[10]": {"test_system": "hTel22 (DNA, G4) AGGGTTAGGGTTAGGGTTAGGG", "assay": "circular dichroism (induced CD)", "conditions": "K+ 100 mM; 4 µM G4, 16 µM c-exNDI"}}, "data": [{"smiles": "CN(C)CCCn1c(=O)c2ccc3c(=O)n(CCCN(C)C)c(=O)c4c5[nH]c6ccccc6[nH]c5c(c1=O)c2c34", "values": [{"measurement": "binding", "setting": "[1]", "value": "yes"}, {"measurement": "K1:1", "setting": "[2]", "value": "5.34±0.03x10^6 M^-1"}, {"measurement": "K1:1", "setting": "[3]; K+ 100 mM", "value": "5.37±0.06x10^6 M^-1"}, {"measurement": "K1:2", "setting": "[3]; Na+ 100 mM, overall constant of 2:1 model", "value": "3.0±0.3x10^11 M^-2"}, {"measurement": "K1:2", "setting": "[4]", "value": "3.0±0.3x10^10 M^-2"}, {"measurement": "K1:1", "setting": "[5]", "value": "1.2±0.5x10^5 M^-1"}, {"measurement": "K1:1", "setting": "[6]", "value": "4.82±0.04x10^6 M^-1"}, {"measurement": "K1:1", "setting": "[7]", "value": "3.43±0.03x10^7 M^-1"}, {"measurement": "K1:1", "setting": "[8]", "value": "2.85±0.01x10^5 M^-1"}, {"measurement": "K1:1", "setting": "[9]", "value": "7.41±0.03x10^3 M^-1"}, {"measurement": "binding", "setting": "[10]", "value": "yes"}]}]}
